Experimental data from PubChem BioAssay AID248 (DTP/NCI, 2004).
Where “and” joins values, the source holds several entries; their conditions need not be identical. Equal entries are not always repeated. Toxic doses and inconclusive results are not listed. No stated cut-off is given here; in the data, active means T/C of 150% or more; inactive means T/C below 125%.

System: L1210 leukemia ip in BDF1 mice, survival T/C
Test: NCI In Vivo Anticancer Drug Screen. Data for tumor model L1210 Leukemia (intraperitoneal) in B6D2F1 (BDF1) mice
Conditions: endpoint: mean survival time, higher = longer survival
Method in brief: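 Read-out is survival time, reported as the treated-group measurement over the vehicle-control measurement.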

[1] = dose: 100.0 mg/kg/injection, schedule: Q01DX001 (ip), vehicle: carboxymethylcellulose (CMC)
[2] = dose: 200.0 mg/kg/injection, schedule: Q01DX001 (ip), vehicle: carboxymethylcellulose (CMC)
[3] = dose: 400.0 mg/kg/injection, schedule: Q01DX001 (ip), vehicle: carboxymethylcellulose (CMC)
[4] = dose: 100.0 mg/kg/injection, schedule: Q01DX001 (ip), vehicle: saline
[5] = dose: 200.0 mg/kg/injection, schedule: Q01DX001 (ip), vehicle: saline
[6] = dose: 400.0 mg/kg/injection, schedule: Q01DX001 (ip), vehicle: saline
[7] = dose: 50.0 mg/kg/injection, schedule: Q01DX001 (ip), vehicle: carboxymethylcellulose (CMC)
[8] = dose: 100.0 mg/kg/injection, schedule: Q04DX003 (ip), vehicle: saline with Tween-80
[9] = dose: 200.0 mg/kg/injection, schedule: Q04DX003 (ip), vehicle: saline with Tween-80
[10] = dose: 400.0 mg/kg/injection, schedule: Q04DX003 (ip), vehicle: saline with Tween-80

Measured: T/C

O=C1Nc2ccc(Cl)cc2C1=O
inactive: dose: 75.0 mg/kg/injection, schedule: Q01DX001 (ip), vehicle: saline 90 % of control | dose: 150.0 mg/kg/injection, schedule: Q01DX001 (ip), vehicle: saline 93 % of control | dose: 300.0 mg/kg/injection, schedule: Q01DX001 (ip), vehicle: saline 93 % of control

CC(C)=CCNc1ncnc2nc[nH]c12
inactive: dose: 5.0 mg/kg/injection, schedule: Q01DX001 (ip), vehicle: saline 107 % of control | dose: 10.0 mg/kg/injection, schedule: Q01DX001 (ip), vehicle: saline 95 % of control | dose: 10.0 mg/kg/injection, schedule: Q01DX009 (ip), vehicle: saline with Tween-80 104 % of control | dose: 20.0 mg/kg/injection, schedule: Q01DX001 (ip), vehicle: saline 101 % of control | dose: 20.0 mg/kg/injection, schedule: Q01DX009 (ip), vehicle: saline with Tween-80 103 % of control | dose: 20.0 mg/kg/injection, schedule: Q04DX003 (ip), vehicle: saline with Tween-80 100 % of control | dose: 40.0 mg/kg/injection, schedule: Q01DX001 (ip), vehicle: saline 101 % of control | dose: 40.0 mg/kg/injection, schedule: Q01DX009 (ip), vehicle: saline with Tween-80 98 % of control

CCOC(=O)c1cc(Cl)c2c(ccc3ccccc32)n1
inactive: [1] 115 % of control | dose: 100.0 mg/kg/injection, schedule: Q01DX009 (ip), vehicle: carboxymethylcellulose (CMC) 92 % of control | dose: 100.0 mg/kg/injection, schedule: Q04DX002 (ip), vehicle: carboxymethylcellulose (CMC) 100 % of control and 103 % of control | dose: 100.0 mg/kg/injection, schedule: Q04DX003 (ip), vehicle: carboxymethylcellulose (CMC) 105 % of control | [2] 103 % of control | dose: 200.0 mg/kg/injection, schedule: Q01DX009 (ip), vehicle: carboxymethylcellulose (CMC) 92 % of control | dose: 200.0 mg/kg/injection, schedule: Q04DX002 (ip), vehicle: carboxymethylcellulose (CMC) 93 % of control and 97 % of control | dose: 200.0 mg/kg/injection, schedule: Q04DX003 (ip), vehicle: carboxymethylcellulose (CMC) 115 % of control | [3] 97 % of control | dose: 400.0 mg/kg/injection, schedule: Q01DX009 (ip), vehicle: carboxymethylcellulose (CMC) 98 % of control | dose: 400.0 mg/kg/injection, schedule: Q04DX002 (ip), vehicle: carboxymethylcellulose (CMC) 93 % of control and 95 % of control | dose: 400.0 mg/kg/injection, schedule: Q04DX003 (ip), vehicle: carboxymethylcellulose (CMC) 107 % of control

O=S1(=O)CCCCN1
inactive: dose: 44.0 mg/kg/injection, schedule: Q01DX009 (ip), vehicle: saline 101 % of control | dose: 87.5 mg/kg/injection, schedule: Q01DX009 (ip), vehicle: saline 102 % of control | dose: 175.0 mg/kg/injection, schedule: Q01DX009 (ip), vehicle: saline 98 % of control | dose: 350.0 mg/kg/injection, schedule: Q01DX009 (ip), vehicle: saline 90 % of control

Nc1c(Br)cc2c(c1Br)C(=O)c1cc(Br)ccc1-2
inactive: [1] 92 % of control | [2] 94 % of control | [3] 97 % of control

Nc1[nH]c(=O)nc2nc(I)[nH]c12
inactive: [1] 97 % of control | [2] 100 % of control | [3] 113 % of control

Cc1[nH]c(=O)nc2c1CCO2
inactive: [4] 98 % of control | [5] 104 % of control | [6] 101 % of control

O=C(c1ccc([N+](=O)[O-])cc1)c1ccc([N+](=O)[O-])cc1
inactive: dose: 100.0 mg/kg/injection, schedule: Q04DX002 (ip), vehicle: saline with Tween-80 90 % of control | dose: 200.0 mg/kg/injection, schedule: Q04DX002 (ip), vehicle: saline with Tween-80 90 % of control | dose: 400.0 mg/kg/injection, schedule: Q04DX002 (ip), vehicle: saline with Tween-80 101 % of control

OB1OB(OB2OB(O)O2)O1
inactive: dose: 50.0 mg/kg/injection, schedule: Q01DX001 (ip), vehicle: saline 92 % of control | [4] 92 % of control | [5] 108 % of control | [6] 113 % of control

O=S1OCC=CCO1
inactive: [7] 108 % of control | [1] 114 % of control | [2] 105 % of control

CN(C)c1ccc(N=NC#N)cc1
inactive: dose: 1.56 mg/kg/injection, schedule: Q01DX009 (ip), vehicle: saline 108 % of control | dose: 3.12 mg/kg/injection, schedule: Q01DX009 (ip), vehicle: saline 105 % of control | dose: 6.25 mg/kg/injection, schedule: Q01DX009 (ip), vehicle: saline with Tween-80 104 % of control | dose: 6.25 mg/kg/injection, schedule: Q01DX009 (ip), vehicle: saline 105 % of control

Cc1ccc(OCC(=O)Nc2c(Cl)cc(Cl)cc2Cl)c(C)c1
inactive: dose: 100.0 mg/kg/injection, schedule: Q04DX002 (ip), vehicle: gum acacia 92 % of control | dose: 200.0 mg/kg/injection, schedule: Q04DX002 (ip), vehicle: gum acacia 89 % of control

CC(C)C(NC(=O)C1CSC(C)(C)N1C=O)C(=O)OC1CCCCC1 (stereo not drawn)
inactive: [8] 97 % of control | [9] 101 % of control | [10] 90 % of control

O=C(Nc1ccc(Cc2ccc(NC(=O)Nc3cccc(C4=NCCN4)c3)cc2)cc1)Nc1cccc(C2=NCCN2)c1
inactive: dose: 111.0 mg/kg/injection, schedule: Q01DX Z (ip), vehicle: carboxymethylcellulose (CMC) 101 % of control | dose: 120.0 mg/kg/injection, schedule: Q01DX Z (ip), vehicle: carboxymethylcellulose (CMC) 98 % of control | dose: 166.0 mg/kg/injection, schedule: Q01DX Z (ip), vehicle: carboxymethylcellulose (CMC) 101 % of control | dose: 180.0 mg/kg/injection, schedule: Q01DX Z (ip), vehicle: carboxymethylcellulose (CMC) 98 % of control | dose: 250.0 mg/kg/injection, schedule: Q01DX Z (ip), vehicle: carboxymethylcellulose (CMC) 107 % of control | dose: 270.0 mg/kg/injection, schedule: Q01DX Z (ip), vehicle: carboxymethylcellulose (CMC) 101 % of control | dose: 375.0 mg/kg/injection, schedule: Q01DX Z (ip), vehicle: carboxymethylcellulose (CMC) 107 % of control | dose: 405.0 mg/kg/injection, schedule: Q01DX Z (ip), vehicle: carboxymethylcellulose (CMC) 100 % of control

COC1=C[C@]23CCCN2C[C@H](O)c2cc4c(cc2[C@@H]3[C@@H]1O)OCO4
inactive: dose: 15.0 mg/kg/injection, schedule: Q01DX009 (ip), vehicle: saline 108 % of control | dose: 30.0 mg/kg/injection, schedule: Q01DX009 (ip), vehicle: saline 104 % of control | dose: 60.0 mg/kg/injection, schedule: Q01DX009 (ip), vehicle: saline 100 % of control

O=C(COc1ccc(Cl)c(Cl)c1)NCc1ccc[n+](Cc2cc(Cl)ccc2S(=O)(=O)F)c1
inactive: [8] 101 % of control | [9] 114 % of control | [10] 88 % of control

CC(=O)OC1C(OS(=O)(=O)c2ccc(C)cc2)C(COC(=O)c2ccccc2)OC1n1cnc2c(NC(=O)c3ccccc3)ncnc21 (stereo not drawn)
inactive: dose: 100.0 mg/kg/injection, schedule: Q01DX005 (ip), vehicle: saline 97 % of control | dose: 200.0 mg/kg/injection, schedule: Q01DX005 (ip), vehicle: saline 90 % of control

[N-]=[N+]=NCCC[CH2][Pb]([c]1ccccc1)([c]1ccccc1)[c]1ccccc1
inactive: [7] 96 % of control | [1] 102 % of control | [2] 100 % of control | [3] 96 % of control

CCC(CC)(COC(=O)c1ccc(N)cc1)C1CCCCC1
inactive: dose: 150.0 mg/kg/injection, schedule: Q01DX001 (ip), vehicle: carboxymethylcellulose (CMC) 94 % of control

COC(=O)C1(CCOC(C)=O)CCCCC12OCCO2 (stereo not drawn)
inactive: [1] 94 % of control | [2] 100 % of control | [3] 91 % of control

CN(C)c1ccc(/C=C/C(=O)c2ccc([N+](=O)[O-])cc2)c(Cl)c1
inactive: dose: 100.0 mg/kg/injection, schedule: Q04DX003 (ip), vehicle: Klucel (hydroxypropylcellulose) (HPC) 92 % of control | dose: 200.0 mg/kg/injection, schedule: Q04DX003 (ip), vehicle: Klucel (hydroxypropylcellulose) (HPC) 97 % of control | dose: 400.0 mg/kg/injection, schedule: Q04DX003 (ip), vehicle: Klucel (hydroxypropylcellulose) (HPC) 97 % of control

COc1ccc(/C=C/c2cnccn2)cc1OC
inactive: dose: 100.0 mg/kg/injection, schedule: Q01DX009 (ip), vehicle: Klucel (hydroxypropylcellulose) (HPC) 101 % of control | dose: 200.0 mg/kg/injection, schedule: Q01DX009 (ip), vehicle: Klucel (hydroxypropylcellulose) (HPC) 101 % of control | dose: 400.0 mg/kg/injection, schedule: Q01DX009 (ip), vehicle: Klucel (hydroxypropylcellulose) (HPC) 106 % of control

Nc1nc2ncc(CNc3ccc(C(=O)NC(CCC(=O)O)C(=O)O)s3)nc2c(=O)[nH]1 (stereo not drawn)
inactive: [4] 95 % of control | [5] 101 % of control and 95 % of control | [6] 93 % of control and 90 % of control
